According to patent US11382878B2, “Use of metformin and sodium butyrate for treating conditions induced by chronic inflammation” (Johnpro Biotech Inc., priority 2017, dated 2022):

Columns and labels:
[1] = test system: radiation induced inflammation of the rectum; assay: Radiation induced rectum inflammation in mice (gross rectum observation, H&E staining)
[2] = test system: radiation proctitis; assay: Clinical case: radiation proctitis patient treated by enema; assay type: in vivo, human; settings: one patient, grade 3 radiation proctitis, sulfasalazine and steroids enema treatment for 6 months

SMILES	stool in the rectum (rectum mucosa function of absorbing water) ([1]; 30 Gy radiation on Day 1, rectal enema once daily Day 8 to Day 14, observed Day 14 (FIG. 4A, 4B))	crypt tissue / damage to the intestine mucosa (H&E stain) ([1]; 30 Gy radiation on Day 1, rectal enema once daily Day 8 to Day 14, rectum samples Day 14 (FIG. 5A))	response of symptoms to prior treatment [2]
C[C@]12CCC(=O)C=C1CC[C@@H]1[C@@H]2C(=O)C[C@@]2(C)[C@H]1CC[C@]2(O)C(=O)CO [cortisone]	a significant amount of loose stool was seen in the rectum	the crypt tissue was not observed	–
O=C(O)c1cc(/N=N/c2ccc(S(=O)(=O)Nc3ccccn3)cc2)ccc1O [sulfasalazine]	–	–	refractory
